Test results as given in patent US20130053385A1, “METHOD OF COMBATING AND CONTROLLING PESTS” (SYNGENTA LIMITED, priority 2009, published 2013).
Read-outs that look alike come from different tables or passages of the source.

Experiments:
Assay type in all cases: in vivo
[1] = system: Plutella xylostella (Diamond Back Moth); experiment: Activity against Plutella xylostella, larvicide, feeding/residual contact activity, preventive (artificial diet MTP, Example B5); conditions: 120 h, read-out: activity (larval mortality, antifeedant, growth regulation)
Experimental: Activity Against Plutella xylostella (Diamond Back Moth)
(§1) (larvicide, feeding/residual contact activity, preventive)
24-well microtiter plate (MTP) with artificial diet is treated with test solutions by pipetting. After drying, the MTP's are infested with larvae (L2)(10-15 per well). After an incubation period of 5 days, samples are checked for larval mortality, antifeedant and growth regulation.

[2] = system: Myzus persicae (Green Peach Aphid); experiment: Activity against Myzus persicae, mixed population, feeding/residual contact activity, preventive (sunflower leaf discs, Example B1); conditions: foliar, 144 h, 400 ppm, sprayed sunflower leaf discs, 6 days incubation, mixed-age aphids, read-out: activity (mortality)
Experimental: Activity Against Myzus persicae (Green Peach Aphid)
(§2) (mixed population, feeding/residual contact activity, preventive)
Sunflower leaf discs are placed on agar in a 24-well microtiter plate and sprayed with test solutions. After drying, the leaf discs are infested with an aphid population of mixed ages. After an incubation period of 6 days, samples are checked for mortality and special effects (e.g. phytotoxicity).

[3] = system: Thrips tabaci (Onion Thrips); experiment: Activity against Thrips tabaci, mixed population, feeding/residual contact activity, preventive (sunflower leaf discs, Example B3); conditions: foliar, 144 h, sprayed sunflower leaf discs, 6 days incubation, mixed-age thrips
Experimental: Activity Against Thrips tabaci (Onion Thrips)
as §2
Sunflower leaf discs are placed on agar in a 24-well microtiter plate and sprayed with test solutions. After drying, the leaf discs are infested with a thrips population of mixed ages. After an incubation period of 6 days, samples are checked for mortality and special effects (e.g. phytotoxicity).

[4] = system: Tetranychus urticae (Two-Spotted Spider Mite); experiment: Activity against Tetranychus urticae, mixed population, feeding/residual contact activity, preventive (bean leaf discs, Example B4); conditions: foliar, 192 h, 400 ppm, sprayed bean leaf discs, 8 days, mixed-age mites, read-out: activity (egg, larval and adult mortality)
Text: Activity Against Tetranychus urticae (Two-Spotted Spider Mite)
as §2
Bean leaf discs on agar in 24-well microtiter plates are sprayed with test solutions. After drying, the leaf discs are infested with mite populations of mixed ages. 8 days later, discs are checked for egg mortality, larval mortality, and adult mortality.

[5] = system: Diabrotica balteata (Corn Root Worm); experiment: Activity against Diabrotica balteata, larvicide, feeding/residual contact activity, preventive (artificial diet MTP, Example B6); conditions: 120 h, L2 larvae, 5 days incubation, read-out: activity (larval mortality, antifeedant, growth regulation)
Experimental: Activity Against Diabrotica balteata (Corn Root Worm)
as §1
24-well microtiter plate (MTP) with artificial diet is treated with test solutions by pipetting. After drying, the MTP's are infested with larvae (L2)(6-10 per well). After an incubation period of 5 days, samples are checked for larval mortality, antifeedant and growth regulation.

[6] = 400 ppm, artificial diet, L2 larvae, 5 days incubation

Row | SMILES | mortality at 400 ppm [1, 6] [%] | mortality at 400 ppm [2] [%] | mortality at 400 ppm [3] [%] | mortality at 400 ppm [4] [%] | further results
1 | Cc1cc(C)c(C2=C(OC(=O)C(C)(C)C)CC(CC3CCOCC3)C2=O)c(C)c1 (stereo not drawn) [Compound P5] | > 80 |  |  |  | 
2 | CON1CCC(CC2CC(=O)C(c3c(C)cc(C)cc3C)C2=O)CC1 (stereo not drawn) [Compound T23] |  | > 80 | > 80 |  | 
3 | CON1CCC(CC2CC(OC(=O)OC(C)C)=C(c3c(C)cc(C)cc3C)C2=O)CC1 (stereo not drawn) [Compound P56] |  |  | > 80 | > 80 | 
4 | CCSC(=O)N1CCC(/C=C2\CC(=O)C(c3c(C)cc(C)cc3C)C2=O)C1 (stereo not drawn) [Compound T33] |  |  |  |  | mortality at 400 ppm [1]: > 80%
5 | Cc1cc(C)c(C2=C(OC(=O)C(C)(C)C)CC(CC3CCCOC3)C2=O)c(C)c1 (stereo not drawn) [Compound P37] | > 80 |  |  | > 80 | 
6 | Cc1cc(C)c(C2C(=O)CC(CC3CCOC3)C2=O)c(C)c1 (stereo not drawn) [Compound T5] | > 80 | > 80 | > 80 |  | 
7 | Cc1cc(C)c(C2=C(OC(=O)C(C)(C)C)CC(CC3CCOC3)C2=O)c(C)c1 (stereo not drawn) [Compound P7] | > 80 | > 80 | > 80 | > 80 | 
8 | Cc1cc(C)c(C2C(=O)CC(CC3CCCOC3)C2=O)c(C)c1 (stereo not drawn) [Compound T16] | > 80 | > 80 | > 80 |  | 
9 | CON1CCC(CC2CC(OC(C)=O)=C(c3c(C)cc(C)cc3C)C2=O)CC1 (stereo not drawn) [Compound P50] |  | > 80 | > 80 |  | 
10 | Cc1cc(Br)cc(C)c1C1C(=O)CC(CC2CCOC2)C1=O (stereo not drawn) [Compound T160] |  |  |  |  | mortality at 400 ppm [5]: > 80%
11 | Cc1cc(C)c(C2C(=O)CC(CC3C[C@@H]4O[C@H]3[C@@H]3C(=O)NC(=O)[C@@H]34)C2=O)c(C)c1 (stereo partly drawn) [Compound T127] | > 80 |  |  |  | 
12 | Cc1cc(C)c(C2C(=O)CC(CC3CCOCC3)C2=O)c(C)c1 (stereo not drawn) [Compound T4] | > 80 |  | > 80 |  | 
13 | Cc1cc(C)c(C2=C(OC(=O)C3CCCCC3)CC(CC3CCOC3)C2=O)c(C)c1 (stereo not drawn) [Compound P15] |  |  | > 80 |  | 
14 | Cc1cccc(C)c1C1C(=O)CC(CC2CCOCC2)C1=O (stereo not drawn) [Compound T52] |  | > 80 | > 80 | > 80 | 
15 | CCCOC(=O)OC1=C(c2c(C)cc(C)cc2C)C(=O)C(CC2CCOC2)C1 (stereo not drawn) [Compound P20] | > 80 |  | > 80 |  | 
16 | Cc1cc(C)c(C2C(=O)CC(CC3CCOC(C)(C)C3)C2=O)c(C)c1 (stereo not drawn) [Compound T39] |  |  |  | > 80 | mortality at 400 ppm [5]: > 80%
17 | Cc1cc(C)c(C2C(=O)C/C(=C\C3CCN(C(=O)OC(C)(C)C)CC3)C2=O)c(C)c1 (stereo not drawn) [Compound T54] |  |  |  | > 80 | mortality at 400 ppm [5]: > 80%
18 | Cc1cc(C)c(C2C(=O)C/C(=C\C3CCOCC3)C2=O)c(C)c1 (stereo not drawn) [Compound T8] | > 80 | > 80 | > 80 | > 80 | 
19 | Cc1cc(C)c(C2=C(OC(=O)OCC(C)C)CC(CC3CCOC3)C2=O)c(C)c1 (stereo not drawn) [Compound P23] |  |  | > 80 | > 80 | 
20 | Cc1cc(C)c(C2C(=O)C/C(=C\C3CCN(S(C)(=O)=O)C3)C2=O)c(C)c1 (stereo not drawn) [Compound T31] | > 80 |  |  | > 80 | 
21 | CON1CCC(CC2CC(OC(=O)c3ccccc3)=C(c3c(C)cc(C)cc3C)C2=O)CC1 (stereo not drawn) [Compound P55] |  |  | > 80 | > 80 | 
22 | Cc1cc(C)c(C2C(=O)CC(CC3CCN(C(=O)c4cc(C)nn4C)CC3)C2=O)c(C)c1 (stereo not drawn) [Compound T121] | > 80 |  |  |  | 
23 | Cc1cc(C)c(C2=C(OC(=O)c3ccccc3)CC(CC3CCOC3)C2=O)c(C)c1 (stereo not drawn) [Compound P17] |  | > 80 | > 80 | > 80 | 
24 | CCS(=O)(=O)OC1=C(c2c(C)cc(C)cc2C)C(=O)C(CC2CCOC2)C1 (stereo not drawn) [Compound P27] |  |  | > 80 |  | 
25 | COc1ccc(C(=O)OC2=C(c3c(C)cc(C)cc3C)C(=O)C(CC3CCOC3)C2)cc1 (stereo not drawn) [Compound P18] |  |  | > 80 | > 80 | 
